≈ marks a conversion by molar mass, not a printed value. Like-named read-outs stand apart in the source and are kept apart here.
Experiments:
Solution Stability Assay = format: physicochemical
Protocol: Acetonitrile Stock Solution: Acetonitrile Stock Solution of the prodrug was prepared by dissolving 1.5-2.0 mg of weighted compound in 5.0 mL of acetonitrile in a 5 mL volumetric flask.
pH 6.5 Buffer Working Solution: A pH 6.5 Buffer Working Solution of drug was prepared by adding 1.5 mL of the Acetonitrile Stock Solution to 3.5 mL of stability buffer (50 mM potassium phosphate, pH 6.5) in a 10 mL vial, and mixing. Using a 3 mL syringe, ˜3 mL of solution was withdrawn and filtered using the Gelman 0.45 μm syringe filter into a clean 1.5 mL LC vial. This filtered solution will was used to evaluate the prodrug degradation throughout the course of the study. Target concentration: 90-120 μg/mL (70% Aqueous: 30% Acetonitrile)
pH 4.0 Acidic Working Solution: A pH 4.0 Working Solution of drug was prepared by adding 1.5 mL of the Acetonitrile Stock Solution to 3.5 mL of stability buffer (50 mM sodium acetate, pH 4.0) in a 10 mL vial and mixing. Using a 3 mL syringe, ˜3 mL of solution was withdrawn and filtered using the Gelman 0.45 μm syringe filter into a clean 1.5 mL LC vial. This filtered solution was used to evaluate the prodrug degradation throughout the course of the study. Target concentration: 90-120 μg/mL (70% Aqueous: 30% Acetonitrile)
Experimental Methods: Following the sample preparation procedure described above a single sample (n=1) was prepared for each pH condition. The samples were then placed in an HPLC autosampler maintained at 37° C. and samples were analyzed over a 24 h period. Prodrug remaining (%) was reported relative to the initial peak area (t=0 h). In cases where a conversion to parent half-life could be calculated, a t1/2 was generated. Confirmation of the conversion to parent from the prodrug was obtained by LCMS and HPLC analysis of the final timepoint samples.
Typical LC parameters are shown below: • HPLC System: HP1100 Series, Hewlett Packard., Heated autosampler • Analytical column: Synergi 4 u Hydro C18, 4.6 mm×5.0 cm, PHENOMENEX® • Column temperature: 40° C. • Autosampler temp: 37° C. • Flow rate: 1.0 mL/min • Injection Volume: 10 μL • Mobile Phase: A: Acetonitrile • B: 0.1% Phosphoric acid in water • Run Time: 14.0 minutes Typical LCMS parameters are shown below: • LC-MS System: Surveyor HPLC system, ThermoFinnigan LCQ Deca XP Max (Ion trap) • Analytical column: Synergi 4 u Hydro C18, 4.6 mm×5.0 cm, PHENOMENEX® • Column temperature: 40° C. • Autosampler temp: 22° C. • Flow rate: 1.0 mL/min • Injection Volume: 5 μL • Mobile Phase: A: 95% Acetonitrile/5% 20 mM Ammonium Acetate • B: 5% Acetonitrile/95% 20 mM Ammonium Acetate LCQ Parameters: • Sheath Flow Rate: 81.64 • Aux/Sweep Flow Rate: 19.01 • Current (uA): 10.89 • Voltage (kV): 5.00 • Capillary (C): 348.10 • Capillary Voltage (V): 30.44

[1] = Thermodynamic Equilibrium Aqueous Solubility Assay; format: physicochemical; conditions: thermodynamic from solid
Protocol: Standards Preparation: The calibration standard was prepared by accurately weighing 0.5-0.7 mg of sample in 5 ml of methanol. If the material was not fully soluble in methanol, other solvents such as DMSO or mixed solvents were used.
Test Sample Preparation: An excess amount of powder prodrug was equilibrated with 1 mL of buffer (50 mM potassium phosphate, pH 6.5 and 50 mM sodium acetate, pH 4.0) in a 2 mL glass vial. The solution was sonicated and vortexed for ˜30 seconds. The vials were shaken at 300 rpm at room temperature for 24 hrs. The exact incubation time for a specific prodrug was based on the prior aqueous stability data. If the compound was stable in the buffer up to 24 hrs, then the solubility was measured after 24 hrs, otherwise kinetic solubility data was reported. The final saturated solution was then transferred to a 1.5 mL Eppendorf tube and centrifuged for ˜2 min. at 10000 rpms. The supernatant from the saturated solution was transferred to a glass HPLC vial and the solubility was analyzed by HPLC using a four point calibration curve.

[2] = potassium phosphate buffer with 30% acetonitrile, pH 6.5, read-out: Stability (t1/2, h) pH 6.5 (converted)
[3] = sodium acetate buffer with 30% acetonitrile, pH 4, read-out: Stability (t1/2, h) pH 4.0 (converted)
[4] = potassium phosphate buffer, pH 6.5, aqueous buffer, read-out: Solubility (mg/mL) pH 6.5
[5] = sodium acetate buffer, pH 4, aqueous buffer, read-out: Solubility (mg/mL) pH 4.0

Row | SMILES | half-life (Solution Stability Assay; [2]) | half-life (Solution Stability Assay; [3]) | solubility at 24 h [1, 4] | solubility at 24 h [1, 5]
1 | NC(=O)[C@@H](CCC(F)(F)F)[C@@H](CCC(F)(F)F)C(=O)N[C@H]1N=C(c2ccccc2)c2ccccc2N(COC(=O)Cc2ccc(OP(=O)(O)O)cc2)C1=O [Example 1, ((3S)-3-(((2R,3S)-3-Carbamoyl-6,6,6-trifluoro-2-(3,3,3-trifluoropropyl)hexanoyl)amino)-2-oxo-5-phenyl-2,3-dihydro-1H-1,4-benzodiazepin-1-yl)methyl (4-(phosphonooxy)phenyl)acetate] | > 500 h | > 500 h | > 1.22 mg/mL | 0.01 mg/mL (≈ 12.7 µM)
2 | NC(=O)[C@@H](CCC(F)(F)F)[C@@H](CCC(F)(F)F)C(=O)N[C@H]1N=C(c2ccccc2)c2ccccc2N(COC(=O)c2ccc(COP(=O)(O)O)cc2)C1=O [Example 2, ((3S)-3-(((2R,3S)-3-Carbamoyl-6,6,6-trifluoro-2-(3,3,3-trifluoropropyl)hexanoyl)amino)-2-oxo-5-phenyl-2,3-dihydro-1H-1,4-benzodiazepin-1-yl)methyl 4-((phosphonooxy)methyl)benzoate] | > 500 h | > 500 h | 0.42 mg/mL (≈ 534 µM) | 0.99 mg/mL (≈ 1260 µM)
3 | Cc1cc(C)c(C(C)(C)CC(=O)OCN2C(=O)[C@@H](NC(=O)[C@H](CCC(F)(F)F)[C@H](CCC(F)(F)F)C(N)=O)N=C(c3ccccc3)c3ccccc32)c(OP(=O)(O)O)c1 [Example 3, (3-(((2R,3S)-3-Carbamoyl-6,6,6-trifluoro-2-(3,3,3-trifluoropropyl)hexanoyl)amino)-2-oxo-5-phenyl-2,3-dihydro-1H-1,4-benzodiazepin-1-yl)methyl 3-(2,4-dimethyl-6-(phosphonooxy)phenyl)-3-methylbutanoate] | > 500 h | > 500 h | > 0.52 mg/mL | > 0.28 mg/mL
4 | CC(C)(N)C(=O)OCN1C(=O)[C@@H](NC(=O)[C@H](CCC(F)(F)F)[C@H](CCC(F)(F)F)C(N)=O)N=C(c2ccccc2)c2ccccc21 [Example 4, ((3S)-3-(((2R,3S)-3-Carbamoyl-6,6,6-trifluoro-2-(3,3,3-trifluoropropyl)hexanoyl)amino)-2-oxo-5-phenyl-2,3-dihydro-1H-1,4-benzodiazepin-1-yl)methyl 2-methylalaninate] | 8 h | 64 h | > 1.07 mg/mL | > 3.23 mg/mL
5 | C[C@H](N)C(=O)OCN1C(=O)[C@@H](NC(=O)[C@H](CCC(F)(F)F)[C@H](CCC(F)(F)F)C(N)=O)N=C(c2ccccc2)c2ccccc21 [Example 5, ((3S)-3-(((2R,3S)-3-Carbamoyl-6,6,6-trifluoro-2-(3,3,3-trifluoropropyl)hexanoyl)amino)-2-oxo-5-phenyl-2,3-dihydro-1H-1,4-benzodiazepin-1-yl)methyl L-alaninate] | 5 h | 92 h | 3.2 mg/mL (≈ 4970 µM) | 2.3 mg/mL (≈ 3570 µM)
6 | CC(C)[C@H](N)C(=O)OCN1C(=O)[C@@H](NC(=O)[C@H](CCC(F)(F)F)[C@H](CCC(F)(F)F)C(N)=O)N=C(c2ccccc2)c2ccccc21 [Example 6, ((3S)-3-(((2R,3S)-3-Carbamoyl-6,6,6-trifluoro-2-(3,3,3-trifluoropropyl)hexanoyl)amino)-2-oxo-5-phenyl-2,3-dihydro-1H-1,4-benzodiazepin-1-yl)methyl L-valinate] | 41 h | > 500 h | 0.5 mg/mL (≈ 744 µM) | 0.3 mg/mL (≈ 447 µM)
7 | NC(=O)[C@@H](CCC(F)(F)F)[C@@H](CCC(F)(F)F)C(=O)N[C@H]1N=C(c2ccccc2)c2ccccc2N(COC(=O)C2(N)CC2)C1=O [Example 7, ((3S)-3-(((2R,3S)-3-Carbamoyl-6,6,6-trifluoro-2-(3,3,3-trifluoropropyl)hexanoyl)amino)-2-oxo-5-phenyl-2,3-dihydro-1H-1,4-benzodiazepin-1-yl)methyl 1-aminocyclopropanecarboxylate] | > 500 h | > 500 h | 2.09 mg/mL (≈ 3190 µM) | 1.78 mg/mL (≈ 2720 µM)
8 | NCCSNC(=O)[C@@H](CCC(F)(F)F)[C@@H](CCC(F)(F)F)C(=O)N[C@H]1N=C(c2ccccc2)c2ccccc2NC1=O [Example 8, (2S,3R)—N-((2-Aminoethyl)sulfanyl)-N′-((3S)-2-oxo-5-phenyl-2,3-dihydro-1H-1,4-benzodiazepin-3-yl)-2,3-bis(3,3,3-trifluoropropyl)succinamide] | 334 h | > 500 h | > 0.47 mg/mL | 0.52 mg/mL (≈ 842 µM)
9 | N[C@@H](CSNC(=O)[C@@H](CCC(F)(F)F)[C@@H](CCC(F)(F)F)C(=O)N[C@H]1N=C(c2ccccc2)c2ccccc2NC1=O)C(=O)O [Example 9, S-(((2S,3R)-6,6,6-Trifluoro-3-(((3S)-2-oxo-5-phenyl-2,3-dihydro-1H-1,4-benzodiazepin-3-yl)carbamoyl)-2-(3,3,3-trifluoropropyl)hexanoyl)amino)-L-cysteine] | 58 h | 335 h | 0.64 mg/mL (≈ 967 µM) | 0.75 mg/mL (≈ 1130 µM)
10 | CC(C)CNCNC(=O)[C@@H](CCC(F)(F)F)[C@@H](CCC(F)(F)F)C(=O)N[C@H]1N=C(c2ccccc2)c2ccccc2N(C)C1=O [Example 10, (2S,3R)—N-((Isobutylamino)methyl)-N′-((3S)-1-methyl-2-oxo-5-phenyl-2,3-dihydro-1H-1,4-benzodiazepin-3-yl)-2,3-bis(3,3,3-trifluoropropyl)succinamide] | 32 h | – | < 0.001 mg/mL | > 0.27 mg/mL
11 | CN1C(=O)[C@@H](NC(=O)[C@H](CCC(F)(F)F)[C@H](CCC(F)(F)F)C(=O)NSCCN)N=C(c2ccccc2)c2ccccc21 [Example 11, (2S,3R)—N-((2-Aminoethyl)sulfanyl)-N′-((3S)-1-methyl-2-oxo-5-phenyl-2,3-dihydro-1H-1,4-benzodiazepin-3-yl)-2,3-bis(3,3,3-trifluoropropyl)succinamide] | 29 h | 215 h | > 3.4 mg/mL | > 2.67 mg/mL
12 | CN(C)CCSNC(=O)[C@@H](CCC(F)(F)F)[C@@H](CCC(F)(F)F)C(=O)N[C@H]1N=C(c2ccccc2)c2ccccc2N(C)C1=O [Example 13, (2S,3R)—N-((2-(Dimethylamino)ethyl)sulfanyl)-N′-((3S)-1-methyl-2-oxo-5-phenyl-2,3-dihydro-1H-1,4-benzodiazepin-3-yl)-2,3-bis(3,3,3-trifluoropropyl)succinamide] | 108 h | 334 h | 0.94 mg/mL (≈ 1420 µM) | > 0.92 mg/mL
13 | COC(=O)[C@@H](N)CSNC(=O)[C@@H](CCC(F)(F)F)[C@@H](CCC(F)(F)F)C(=O)N[C@H]1N=C(c2ccccc2)c2ccccc2N(C)C1=O [Example 14, Methyl S-(((2S,3R)-6,6,6-trifluoro-3-(((3S)-1-methyl-2-oxo-5-phenyl-2,3-dihydro-1H-1,4-benzodiazepin-3-yl)carbamoyl)-2-(3,3,3-trifluoropropyl)hexanoyl)amino)-L-cysteinate] | 44 h | 73 h | 0.02 mg/mL (≈ 29 µM) | 0.42 mg/mL (≈ 609 µM)
